Results: ChEMBL document CHEMBL5241120, “Insights into the medicinal chemistry of heterocycles integrated with a pyrazolo[1,5-a]pyrimidine scaffold” (RSC Med Chem, 2022)
≈ marks a conversion by molar mass, not a printed value. Each block holds one compound with its values, some of them ahead of it.

Key:
Salmonella enterica = assay: Antibacterial activity against Salmonella enterica assessed as zone of inhibition; type: functional
Pseudomonas aeruginosa [1] = assay: Antibacterial activity against Pseudomonas aeruginosa assessed as zone of inhibition; type: functional
Bacillus subtilis [2] = assay: Antibacterial activity against Bacillus subtilis; type: functional
Staphylococcus aureus [3] = assay: Antibacterial activity against Staphylococcus aureus assessed as zone of inhibition; type: functional
Staphylococcus aureus [4] = assay: Antibacterial activity against Staphylococcus aureus; type: functional
Escherichia coli [5] = assay: Antibacterial activity against Escherichia coli; type: functional
Pseudomonas aeruginosa [6] = assay: Antibacterial activity against Pseudomonas aeruginosa; type: functional
Bacillus subtilis [7] = assay: Antibacterial activity against Bacillus subtilis assessed as zone of inhibition; type: functional
Escherichia coli [8] = assay: Antibacterial activity against Escherichia coli assessed as zone of inhibition; type: functional
CHO-K1 = assay: Cytotoxicity against CHO-K1 cells by MTT assay; type: toxicity, cell-based, Cricetulus griseus; parameters: concentration or dose not given beside the values; conditions: chinese hamster
Aspergillus niger [9] = assay: Antifungal activity against Aspergillus niger assessed as zone of inhibition; type: functional
[10] = Inhibition of soybean 15-LOX; parameters: species or system Glycine max
Aspergillus niger [11] = assay: Antifungal activity against Aspergillus niger by dry weight method; type: functional
Fusarium verticillioides = assay: Antifungal activity against Fusarium moniliforme by dry weight method; type: functional
Aspergillus flavus = assay: Antifungal activity against Aspergillus flavus by dry weight method; type: functional; parameters: unit not given beside the values
Rattus norvegicus [12] = assay: Analgesic activity in Sprague-Dawley rat at 15 mg/kg after 2 hrs by hot plate test; type: functional
[13] = target: T1, Prostaglandin G/H synthase 1 (Ovis aries, UniProt P05979); assay: Inhibition of ovine COX-1
T1 sequence (P05979 whole entry): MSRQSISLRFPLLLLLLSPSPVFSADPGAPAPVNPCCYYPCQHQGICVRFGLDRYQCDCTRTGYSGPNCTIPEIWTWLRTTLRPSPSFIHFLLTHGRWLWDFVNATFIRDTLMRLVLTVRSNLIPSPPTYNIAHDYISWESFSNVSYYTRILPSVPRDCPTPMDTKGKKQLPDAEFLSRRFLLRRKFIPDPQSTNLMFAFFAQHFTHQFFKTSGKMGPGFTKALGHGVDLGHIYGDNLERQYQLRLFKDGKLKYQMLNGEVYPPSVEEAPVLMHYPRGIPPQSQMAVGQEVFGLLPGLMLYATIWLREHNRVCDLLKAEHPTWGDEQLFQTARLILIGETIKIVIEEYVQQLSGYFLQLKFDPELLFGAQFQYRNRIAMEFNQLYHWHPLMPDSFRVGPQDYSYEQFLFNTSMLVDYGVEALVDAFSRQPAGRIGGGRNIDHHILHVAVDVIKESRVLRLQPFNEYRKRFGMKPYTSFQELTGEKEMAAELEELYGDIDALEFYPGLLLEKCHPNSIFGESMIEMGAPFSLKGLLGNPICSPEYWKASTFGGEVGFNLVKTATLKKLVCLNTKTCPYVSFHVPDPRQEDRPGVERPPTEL

Rattus norvegicus [14] = assay: Antiinflammatory activity in rat assessed as inhibition of carrageenan induced paw edema at 50 mg/kg; type: functional; parameters: scale not given: the % may be the effect or the level left
MCF7 [15] = assay: Cytotoxicity against human MCF7 cells by SRB assay; type: functional, cell-based
HCT-116 = assay: Cytotoxicity against human HCT-116 cells by MTT assay; type: functional, cell-based
HepG2 = assay: Cytotoxicity against human HepG2 cells by MTT assay; type: functional, cell-based
MCF7 [16] = assay: Cytotoxicity against human MCF7 cells by MTT assay; type: functional, cell-based
Candida albicans = assay: Antifungal activity against Candida albicans assessed as zone of inhibition; type: functional

SMILES: O=C(Nc1ccccc1)c1cnn2c(-c3ccccn3)ccnc12
inhibition zone (IZ) (Salmonella enterica): 11 mm

MIC (Bacillus subtilis [2]): 31.2 mg/L (≈ 70.3 µM)
MIC (Staphylococcus aureus [4]): 62.5 mg/L (≈ 141 µM)
MIC (Escherichia coli [5]): 15.6 mg/L (≈ 35.1 µM)
MIC (Pseudomonas aeruginosa [6]): 62.5 mg/L (≈ 141 µM)
SMILES: CN(C)[C@@H]1C(O)=C(C(N)=O)C(=O)[C@@]2(O)C(O)=C3C(=O)c4c(O)cccc4[C@@](C)(O)[C@H]3C[C@@H]12 [TETRACYCLINE]
inhibition zone (IZ) (Pseudomonas aeruginosa [1]): 20 mm
inhibition zone (IZ) (Staphylococcus aureus [3]): 25 mm
inhibition zone (IZ) (Bacillus subtilis [7]): 25 mm
inhibition zone (IZ) (Escherichia coli [8]): 23 mm

MIC (Bacillus subtilis [2]): 5 mg/L (≈ 8.6 µM)
MIC (Escherichia coli [5]): 5 mg/L (≈ 8.6 µM)
SMILES: CN[C@@H]1[C@H](O[C@H]2[C@H](O[C@H]3[C@H](O)[C@@H](O)[C@H](N=C(N)N)[C@@H](O)[C@@H]3N=C(N)N)O[C@@H](C)[C@]2(O)C=O)O[C@@H](CO)[C@H](O)[C@H]1O [STREPTOMYCIN]
inhibition zone (IZ) (Bacillus subtilis [7]): 16.2 mm
inhibition zone (IZ) (Escherichia coli [8]): 16.4 mm

SMILES: Cc1c(NC(=O)c2cnn3cc(-c4ccccc4)cnc23)c(=O)n(-c2ccccc2)n1C
Activity (CHO-K1): 97.1%

SMILES: C[C@@H]1[C@H](O)[C@@H](C)/C=C/C=C/C=C/C=C/C=C/C=C/C=C/[C@H](O[C@@H]2O[C@H](C)[C@@H](O)[C@H](N)[C@@H]2O)C[C@@H]2O[C@](O)(C[C@@H](O)C[C@@H](O)[C@H](O)CC[C@@H](O)C[C@@H](O)CC(=O)O[C@H]1C)C[C@H](O)[C@H]2C(=O)O [AMPHOTERICIN B]
inhibition zone (IZ) (Aspergillus niger [9]): 23.3 mm

IC50 [10]: 8.5 µM
SMILES: CC(Cc1ccc(O)c(O)c1)C(C)Cc1ccc(O)c(O)c1 (configuration not stated) [NORDIHYDROGUAIARETIC ACID]

SMILES: Cc1nc2c(c(C)nc3c(C#N)cnn32)c(Cl)c1CCCl
inhibition zone (IZ) (Bacillus subtilis [7]): 15.1 mm
inhibition zone (IZ) (Aspergillus niger [9]): 17.2 mm
inhibition zone (IZ) (Escherichia coli [8]): 15.3 mm

MIC (Bacillus subtilis [2]): 3.9 mg/L (≈ 10.4 µM)
MIC (Staphylococcus aureus [4]): 7.81 mg/L (≈ 20.9 µM)
MIC (Escherichia coli [5]): 15.6 mg/L (≈ 41.8 µM)
MIC (Pseudomonas aeruginosa [6]): 7.81 mg/L (≈ 20.9 µM)
SMILES: COc1ccc(Nc2nn3c(-c4ccc(C)cc4)ccnc3c2C(N)=O)cc1

SMILES: CC(=O)c1cnc2c(C(=O)Nc3ccccc3)cnn2c1C
inhibition zone (IZ) (Salmonella enterica): 16 mm

SMILES: COC(=O)c1cnc2c(C(=O)Nc3c(C)n(C)n(-c4ccccc4)c3=O)cnn2c1C
Activity (CHO-K1): 49.24%

SMILES: CSc1nn2c(-c3ccccc3)c(C#N)c(N)nc2c1-c1nc2ccccc2n1C
Activity (Aspergillus niger [11]): 0.51
Activity (Fusarium verticillioides): 0.19
inhibition zone (IZ) (Staphylococcus aureus [3]): 9 mm
Activity (Aspergillus flavus): 0.36

SMILES: O=C(Nc1ccccc1)c1cnn2ccc(-c3ccccn3)nc12
inhibition zone (IZ) (Salmonella enterica): 20 mm

SMILES: COc1ccc(Nc2nn3c(N)c(C#N)c(-c4cccc(Cl)c4)nc3c2C(=O)Nc2ccccc2)cc1
inhibition zone (IZ) (Aspergillus niger [9]): 15 mm

SMILES: CC1(C)S[C@@H]2[C@H](NC(=O)[C@H](N)c3ccccc3)C(=O)N2[C@H]1C(=O)O [AMPICILLIN]
inhibition zone (IZ) (Staphylococcus aureus [3]): 21 mm
inhibition zone (IZ) (Bacillus subtilis [7]): 26 mm
inhibition zone (IZ) (Salmonella enterica): 23 mm
inhibition zone (IZ) (Escherichia coli [8]): 25 mm

SMILES: CC1=Nc2cc(C)nn2C(=O)/C1=N\Nc1ccc(C)cc1
Activity (Rattus norvegicus [12]): 96.7%

IC50 [13]: 8.5 µM
IC50 [10]: 5.6 µM
SMILES: COc1ccnc(Nc2nn3c(C)cc(C)nc3c2C#N)c1
Activity (Rattus norvegicus [14]): 46%

SMILES: O=C(C1=CN=C2CC(O)=NN2C1P(=O)(OCCCl)OCCCl)c1ccccc1O (configuration not stated)
IC50 (MCF7 [15]): 39.7 mg/L (≈ 85.9 µM)

SMILES: CSc1nn2c(C)cc(=O)[nH]c2c1-c1nc2ccccc2n1C
Activity (Aspergillus niger [11]): 0.26
Activity (Fusarium verticillioides): 0.12
Activity (Aspergillus flavus): 0.16

SMILES: CC(=O)O[C@H]1C(=O)[C@@]2(C)[C@H]([C@H](OC(=O)c3ccccc3)[C@]3(O)C[C@H](OC(=O)[C@H](O)[C@@H](NC(=O)c4ccccc4)c4ccccc4)C(C)=C1C3(C)C)[C@]1(OC(C)=O)CO[C@@H]1C[C@@H]2O [PACLITAXEL]
IC50 (HCT-116): 2.9 mg/L (≈ 3.4 µM)
IC50 (HepG2): 4.3 mg/L (≈ 5.04 µM)
IC50 (MCF7 [16]): 4.7 mg/L (≈ 5.5 µM)

SMILES: COc1ccc(Nc2nn3c(N)c(C#N)c(-c4cccc(Cl)c4)nc3c2C(=O)Nc2ccc(Cl)cc2)cc1
inhibition zone (IZ) (Aspergillus niger [9]): 15 mm

MIC (Bacillus subtilis [2]): 10 mg/L (≈ 37 µM)
MIC (Escherichia coli [5]): 10 mg/L (≈ 37 µM)
SMILES: Cc1cc(NN2C(=O)CCC2=O)n2ncc(C#N)c2n1

SMILES: C[C@@H]1C[C@@H]([C@H](O)CC2CC(=O)NC(=O)C2)C(=O)[C@@H](C)C1 [CYCLOHEXIMIDE]
inhibition zone (IZ) (Candida albicans): 32 mm

IC50 [13]: 10.2 µM
IC50 [10]: 27.3 µM
SMILES: COc1ccnc(Nc2nn3c(SC)c(C#N)c(N)nc3c2C#N)c1
